In US9139592B2, “Modulators of Nrf2 and uses thereof” (TRT PHARMA INC., priority 2010, dated 2015):
“Also recorded” adds a separate entry of the source.

What was measured:
Assay type in all cases: cell-based
[1] = test system: ARE-driven luciferase activity (Nrf2) in HepG2 cells; assay: ARE-driven luciferase assay in HepG2 cells; settings: test compounds at 10, 50 μM, 24 h
Procedure: (§1) One representative ARE (A2-ARE) from GSTA2 is used in this work, and A2-ARE are cloned into the KpnI and MluI sites of pGL3-promoter vector, which contains a heterologous SV40 promoter and a firefly luciferase reporter gene. Cells are seeded at 1×10^5 per well using 24-well plate, grown overnight before being transfected transfected with pGL3 and other designated constructs using LipofectAMINE (Invitrogen) for 5 h. The plasmid pRL, containing a renilla reniformis luciferase reporter gene, is cotransfected as internal control to correct transfection efficiency. After transfection, cells are treated with test compounds at designated concentrations for 24 h prior to harvesting. The cells are then washed twice with phosphate-buffered saline and harvested in 100 uL of 1× passive lysis buffer (Promega, Madison, Wis., USA). The luciferase activities are analyzed in 20-uL cell extracts with the Dual luciferase Assay™ kit (Promega) on a Lumat LB 9507 luminometer (Berthold Technologies, Oak Ridge, Tenn., USA). The related luciferase activities are expressed as a ratio of the pGL3 reporter activity to that of the control plasmid pRL. The fold of induction is expressed as ratio of induction from the treated cells versus the untreated. Values represent measurements from three independent experiments performed in triplicate and are presented as the mean±SEM.
(§2) The 23 top-score molecules from the first round of virtual screening are initially tested in the cell-based ARE-driven luciferase assay. Specifically, HepG2 cell line are transfected with ARE-driven pGL3 luciferase vector and then exposed to individual test compounds at 10, 50 μM. Classical Nrf2 inducers EQ and SFN were used as the positive controls. […] To examine the effect of these active compounds on Nrf2 nuclear translocation, Western blot analysis is used to measure the nuclear level of Nrf2 after cells are exposed to these compounds.

[2] = test system: Nrf2 nuclear translocation in HepG2 cells; assay: Western blot of nuclear Nrf2 (Nrf2 nuclear translocation) in HepG2 cells; settings: 24 h
Procedure: (§3) Cells are treated with test compounds at designated concentrations and are harvested at 24 h. Sixty microgram of cell-lysate protein and 35 ug of nuclear extract are loaded into each lane, and electrophoresed through a 4-20% gradient SDS-PAGE gel (Bio-Rad, Mississauga, ON, Canada), and transferred onto a nitrocellulose membrane. The membrane is incubated with primary antibody and subsequently incubated with HRP-conjugated secondary antibody. Finally, ECL detection is carried out, and the results were recorded on X-ray film by autophotography.
as §2

[3] = test system: γ-glutamylcysteine synthetase (GCS), a Nrf2-regulated protein, in HepG2 cells; assay: Western blot of γ-glutamylcysteine synthetase (GCS) in HepG2 whole cell extracts; settings: 24 h; for induction of GCS: whole cell protein extracts
Procedure: FIG. 3B illustrates endogenous γ-glutamylcysteine synthetase (GCS), a Nrf2-regulated protein, in whole cell protein extracts, detected by Western blotting. HepG2 cells were treated with EQ, SFN, DMSO, BM10, BM31 and BM40 at designated concentrations for 24 h.
as §3
Nrf2 is a master transcription factor regulating multiple ARE-regulated antioxidant and detoxifying enzymes, such as GCS, glutathione S-transferase (GST), NAD(P)H quinone oxidoreductase-1 (NQO1), and UDP glucuronosyltransferase (UGT), etc. The effects of our lead compounds on GCS are examined.

MCF-7 cells [4] = assay: MCF-7 cell viability (MTT, 72 h); settings: dose range 10 nM to 10 μM
Procedure: FIG. 9 illustrates MCF-7 cell survival curves for BM10, BM31, BM40 and SFN. MCF-7 cells were treated with test compounds at designated concentrations for 72 hours. Viable cells were evaluated by MTT assays. Experiments were performed in triplicate and repeated twice.
(§4) Cells are seeded at 4×10^3 per well using 96-well plate, grown overnight before being treated with test compounds for 72 h. Viable cells are measured by MTT assays. To evaluate the ability of test compounds in protecting MCF-7 cells from the damage of B[a]P, MCF-7 cells are seeded at 2×10^3 per well using 96-well plate, grown overnight before being treated with test compounds at designed concentration for 48 h. Next, cells are treated with 160 nM B[a]P in the presence of test compound for another 72 h. The viable cells are measured using MTT assays. Experiments are performed in triplicate and repeated twice.

MCF-7 cells [5] = assay: Protection of MCF-7 cells from cytotoxic damage of B[a]P (MTT); settings: low dose range 50 nM to 200 nM, 48 h pre-incubation, then 160 nM B[a]P + compound 72 h
Procedure: as §4
To test the capability of BM compounds in protecting against the cytotoxic effect of B[a]P, cellular assays using MCF-7 cells are performed. Incubation of MCF-7 cells with various concentrations of BM31 for 48 hours is followed by incubation with 160 nM B[a]P+the BM31 for 72 hours. MTT assays are performed to evaluate the protection effect of the BM31. DMSO without B[a]P was used as a control.

Nrf2/Keap1 complex = target: T1, Nrf2/Keap1 complex (Homo sapiens, UniProt Q14145); assay: Co-IP of Keap1 and Nrf2 in co-transfected 293T cells; settings: 293T cells co-transfected with Nrf2 and Keap1; 24 h; BM31 50 μM, SFN 5 μM
T1 construct: expressed in transfected cells; host or cells: 293T
Procedure: FIG. 5 illustrates 293T cell lysates immunoprecipitated with Keap1 antibody and the eluted proteins were immunoblotted with Nrf2 antibody. Lane 1: Nrf2 transfection; Lanes 2, 3, 4: Nrf2 and Keap1 co-transfection. Lanes 2, 3, 4: treated with DMSO, BM31 (50 μM) and SFN (5 μM), respectively.
To study the effect of BM31 on the interaction of Keap1 and Nrf2, Co-IP experiments are performed. 293T cells are successfully transfected and achieved high Nrf2 expression in this cell line. In the co-IP experiments, 293T cells are co-transfected with Nrf2 and Keap1 expression vectors. After transfection, the cells are treated with SFN and BM31 for 24 h before harvesting. The cell lysates are used for IP with Keap1 antibody. The eluted proteins are immunoblotted with Nrf2 antibody. […] For example, arsenic induces the Nrf2-dependent response through markedly enhancing the interaction between Keap1 and Cul3, subunits of the E3 ubiquitin ligase for Nrf2, which leads to impaired dynamic assembly/disassembly of the E3 ubiquitin ligase and thus decreases its ligase activity, resulting in inhibition of Nrf2 ubiquitination and degradation. Our further work will determine whether BM31 induces Nrf2 via a mechanism similar to that of arsenic.

[6] = test system: Keap1 mutants (C257S, C273S, C288S, C297S) / ARE-driven luciferase in 293T cells; assay: ARE-driven luciferase assay in 293T cells co-transfected with Nrf2 and Keap1 IVR cysteine mutants; settings: for effect of Keap1 C273S and C288S mutations on activation of ARE-driven luciferase activities / effect of Keap1 C297S mutant on potency in activating ARE-driven luciferase activities: 293T cells
Procedure: as §1
Keap1 is a multi-domain protein, in which the IVR domain contains 4 cysteine residues, C257, C273, C288 and C297. The known Nrf2 inducers may interact with these cysteine residues in the IVR domain, resulting in conformational change of Keap1 and ultimately activating Nrf2. To investigate the role of these active cysteine residues in the Nrf2-inducing activity of BM31, 4 Keap1 mutants (C257S, C273S, C288S and C297S) are tested. BM31 is selected for this and further investigation because the dose-response is consistent for its capability in inducing Nrf2 nuclear translocation and induction of enzyme GCS (FIG. 3). Co-transfection experiments to investigate the effects of Keap1 IVR cysteine mutants on ARE-driven luciferase activities are performed. Specifically, 293T cells are co-transfected with ARE-driven pGL3 luciferase report vector, Keap1 vector with and without the Nrf2 expression vector (FIG. 4). After transfection, the cells are exposed to BM31 at 50 μM for 16 h before harvest. The cell lysates are used for measurement of ARE-driven luciferase activities. […] Our conclusion is that BM31 targets the binding site around C297 in the IVR domain of Keap1, and mutation of residue C297 partially abolishes the Nrf2-inducing effect of BM31.

T1 sequence (Q14145 whole entry): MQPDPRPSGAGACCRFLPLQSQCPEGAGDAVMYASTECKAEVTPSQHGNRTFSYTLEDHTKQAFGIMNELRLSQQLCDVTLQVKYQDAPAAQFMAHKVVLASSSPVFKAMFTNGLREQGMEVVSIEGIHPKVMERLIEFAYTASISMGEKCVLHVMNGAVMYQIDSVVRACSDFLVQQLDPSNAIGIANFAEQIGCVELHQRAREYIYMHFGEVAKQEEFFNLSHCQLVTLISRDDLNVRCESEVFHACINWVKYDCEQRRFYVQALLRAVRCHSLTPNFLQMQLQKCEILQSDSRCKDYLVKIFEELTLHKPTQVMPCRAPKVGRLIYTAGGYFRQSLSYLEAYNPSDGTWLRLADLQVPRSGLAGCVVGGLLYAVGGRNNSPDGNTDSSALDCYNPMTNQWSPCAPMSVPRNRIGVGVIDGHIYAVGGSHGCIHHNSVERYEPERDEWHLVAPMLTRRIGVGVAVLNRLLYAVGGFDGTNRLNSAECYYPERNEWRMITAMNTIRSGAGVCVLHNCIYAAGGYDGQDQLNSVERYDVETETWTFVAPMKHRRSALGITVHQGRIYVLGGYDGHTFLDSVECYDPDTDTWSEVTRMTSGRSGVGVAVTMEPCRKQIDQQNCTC
T1 sequence (Q16236 whole entry partner): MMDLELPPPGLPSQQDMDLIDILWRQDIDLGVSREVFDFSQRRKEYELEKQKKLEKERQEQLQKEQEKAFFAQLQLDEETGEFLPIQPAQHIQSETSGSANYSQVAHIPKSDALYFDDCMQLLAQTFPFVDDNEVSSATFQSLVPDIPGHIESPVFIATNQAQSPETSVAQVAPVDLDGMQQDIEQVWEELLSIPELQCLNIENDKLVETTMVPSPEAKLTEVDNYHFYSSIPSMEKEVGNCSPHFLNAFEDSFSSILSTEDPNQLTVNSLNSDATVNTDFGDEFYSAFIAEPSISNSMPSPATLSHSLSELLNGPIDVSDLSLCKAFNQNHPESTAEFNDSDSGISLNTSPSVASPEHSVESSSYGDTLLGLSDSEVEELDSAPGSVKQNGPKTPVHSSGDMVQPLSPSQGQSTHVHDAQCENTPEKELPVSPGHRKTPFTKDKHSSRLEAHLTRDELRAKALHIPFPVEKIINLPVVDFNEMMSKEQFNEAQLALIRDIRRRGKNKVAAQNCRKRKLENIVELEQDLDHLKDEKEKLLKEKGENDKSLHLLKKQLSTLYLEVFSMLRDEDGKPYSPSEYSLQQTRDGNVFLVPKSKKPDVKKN

Row | Compound | induction of ARE-driven luciferase activities [1] | induction of Nrf2 nuclear translocation (nuclear Nrf2 by Western blot) [2] | induction of GCS [3] | potency in elevating nuclear Nrf2 compared with SFN [2] | cytotoxic effects on proliferation of MCF-7 cells (MCF-7 cells [4]) | also measured
1 | COc1ccc2nc3cc(Cl)ccc3c(C#N)c2c1 [BM4] | potently induce | modest activity; also recorded: triggered Nrf2 nuclear translocation | – | – | – | –
2 | O=C1C[C@@H](c2ccccc2)Oc2cc(O)cc(O)c21 [BM5] | – | triggered Nrf2 nuclear translocation | – | – | – | –
3 | Nc1nc(N)c2ncn(Cc3ccccc3)c2n1 [BM6] | potently induce | modest activity; also recorded: triggered Nrf2 nuclear translocation | – | – | – | –
4 | Nc1nc(S)c2ncn(C3CCCCC3)c2n1 [BM9] | – | modest activity; also recorded: triggered Nrf2 nuclear translocation | – | – | – | –
5 | Ic1ncnc2c1ncn2[C@H]1CCCS1 [BM10] | – | most potent; also recorded: triggered Nrf2 nuclear translocation | modest potency; also recorded: induced expression | comparable to that of SFN | do not have cytotoxic effects | –
6 | Cc1n[nH]c2c(Cc3ccco3)nnc(O)c12 [BM18] | potently induce | modest activity; also recorded: triggered Nrf2 nuclear translocation | – | – | – | –
7 | Cc1nnc(Cc2ccco2)c2[nH]nc(C)c12 [BM19] | – | triggered Nrf2 nuclear translocation | – | – | – | –
8 | Clc1ncnc2c1ncn2[C@H]1CCCS1 [BM31] | – | potent Nrf2 inducers; also recorded: triggered Nrf2 nuclear translocation | induced expression | comparable to that of SFN | do not have cytotoxic effects | protection of MCF-7 cells from cytotoxic damage of B[a]P (MCF-7 cells [5]): significant protection; also recorded: provides protections; potency in inducing GCS compared with SFN and EQ [3]: comparable to that of SFN and EQ; effect on Nrf2/Keap1 complex (Keap1 IP, Nrf2 immunoblot) (Nrf2/Keap1 complex): increases the Nrf2/Keap1 complex; effect of Keap1 C273S and C288S mutations on activation of ARE-driven luciferase activities [6]: do not completely abolish; effect of Keap1 C297S mutant on potency in activating ARE-driven luciferase activities [6]: limits the potency; also recorded: abolished the Nrf2 induction activity; induction of ARE-driven luciferase activities with C257S, C273S or C288S mutant Keap1 ([6]; 293T cells co-transfected with ARE-pGL3, Nrf2 and mutant Keap1, BM31 50 μM, 16 h): potently induces
9 | O=C(c1ccccc1)C1COc2ccccc2C1O (stereo not shown) [BM40] | – | potent Nrf2 inducers; also recorded: triggered Nrf2 nuclear translocation | induced expression | comparable to that of SFN | do not have cytotoxic effects | potency in inducing GCS compared with SFN and EQ [3]: comparable to that of SFN and EQ
10 | C[S+]([O-])CCCCN=C=S (stereo not shown) [SFN, sulforaphane, reference compound] | – | – | – | – | – | effect on Nrf2/Keap1 complex (Keap1 IP, Nrf2 immunoblot) (Nrf2/Keap1 complex): increases the Nrf2/Keap1 complex; effect of Keap1 C273S and C288S mutations on activation of ARE-driven luciferase activities [6]: do not completely abolish; effect of Keap1 C297S mutant on potency in activating ARE-driven luciferase activities [6]: did not affect the potency
